Measurements published in patent US20240117303A1, “METHODS AND COMPOSITIONS FOR GENERATING HUMAN MIDBRAIN DOPAMINERGIC NEURONS FROM NEURAL PROGENITOR CELLS” (Trailhead Biosystems Inc., priority 2022, published 2024).
Where “and” joins values, the source holds several entries; their conditions need not be identical. Equal values may be shown once. Entries after “also recorded” stand apart in the source; their conditions may differ.

Tests used:
[1] = test system: human pluripotent stem cells; assay: HD-DoE 13-factor experiment for stage 1 recipe, gene expression modeled after 3-day treatment; dynamic profile and factor criticality analysis; assay type: cell-based
Text: This example utilizes a method of High-Dimensional Design of Experiments (HD-DoE), as previously described in Bukys et al. (2020) Iscience 23:101346. The method employs computerized design geometries to simultaneously test multiple process inputs and offers mathematical modeling of a deep effector/response space. The method allows for finding combinatorial signaling inputs that control a complex process, such as during cell differentiation. It allows testing of multiple plausible critical process parameters, as such parameters impact output responses, such as gene expression. Because gene expression provides hallmark features of the phenotype of, for example, a human cell, the method can be applied to identify, and understand, which signaling pathways control cell fate. In the current example, the HD-DOE method was applied with the intent to find conditions for induction of midbrain neural progenitor-expressed genes, directly from the pluripotent stem cell state.
To develop the recipe for each stage, the impact of agonists and antagonists of multiple signaling pathways (referred to herein as “effectors”) on the expression of two sets of 53 pre-selected genes after a 3-day treatment was tested and modeled. These effectors are small molecules or proteins that are commonly used during stepwise differentiation of stem cells to specific fates. The choice of the effectors to test was based on current literature on neural induction in the midbrain region of the developing brain and differentiation of stem cells to neural progenitors.
To test the effectors, experiments with at least 8 factors were designed that can assess the response of cells to 48 or more different combinations of effectors in a range of concentrations. To analyze the models, we focused on expression of genes expressed in the midbrain region, including OTX2, DMBX1, FOXA2, LMX1A, and on the absence of GBX2, which is a hindbrain marker. The impact of each effector on gene expression level is defined by a parameter called factor contribution that is calculated for each effector during the modeling.
To identify the recipe of stage 1 of differentiation, cells were treated with various effectors for 3 days and the gene expression of cells was modeled. […] This model consisted of 13 factors including LDN193189, PD173074, BLU9931, Purmorphamine, SC79, MK2206, ZM336372, PD0325901, CHIR99021, XAV939, UCLA-gp130, Tofacitinib and GO 6983.
(§1) To assess the impact of elimination of each validated factor, we used dynamic profile analysis and compared the expression level of genes of interest in absence of each finalized factor while others are present.
In the stage 1 recipe, each of the five finalized factors were removed while the other four factors were present and the expression levels of OTX2, DMBX1, FOXA2 and LMX1A was assessed compared to the levels in the presence of all five factors (FIG. 11A-B). […] Expression level of DMBX1 increased in absence of LDN193189, however values of OTX2, FOXA2 and LMX1A decreased.

[2] = test system: stage 1 neural stem cells; assay: HD-DoE 12-factor experiment for stage 2 recipe (first model, FIG. 5-7, 12); assay type: cell-based, human
Text: To further guide the differentiation of midbrain-committed neural stem cells to neural progenitor cells at stage 2, we performed an additional HD-DoE experiment. We thereby obtained additional gene regulatory models that were used for preparation of differentiation protocol. The basis of this was a 12-factor HD-DoE experiment with focus on initiation of differentiation of cells toward midbrain neural progenitor cells for an additional 3 days after termination of stage 1 treatment. Here, we focused on expression of LMX1A and FOXA2 in neural progenitor cells with low to zero expression of GBX2. LMX1A had significant high expression level in the model with value of 47888. Therefore, we used optimization setting for this gene to identify the positive factors. The factors in this experiment included SC79, MK2206, ZM336372, PD0325901, CHIR99021, A 83-01, TTNPB, AGN193109, GW3965, SR9243, Purmorphamine and GSI-XX.
as §1
(§2) In the stage 2 recipe, each of the six finalized factors were removed while the other five factors were present and the expression levels of FOXA2, LMX1A and GBX2 were assessed, compared to the levels in the presence of all factors. According to the first experiment model, the absence of TTNPB lead to a rise of GBX2 expression, while the value of FOXA2 and LMX1A reduced drastically from 10,000 to 0 and 30,000 to 15,000, respectively. The absence of A 83-01 reduced the expression of FOXA2 from 10,000 to 7000, however, as expected, the value of LMX1A increased from 30,000 to 40,000. […] According to the second experiment model, the absence of BMP7 and MK2206 both reduced the level of FOXA2 while increasing the value of LMX1A, with BMP7 as the main effector that led to 0 expression of FOXA2.

[3] = test system: stage 1 neural stem cells; assay: HD-DoE 12-factor experiment for stage 2 recipe (second model, FIG. 8-10, 13); assay type: cell-based, human; conditions: for impact on GBX2 / impact on expression of FOXA2 / impact on expression of LMX1A: dynamic profile, 12 effectors; for level of FOXA2 in absence of the factor / level of LMX1A in absence of the factor: stage 2 recipe, second experiment model; for level of LMX1A in absence of the factor: 4000 with all factors
Protocol: To test additional factors like FGF8 that is routinely used in midbrain differentiation protocols, we ran another 12-factor experiment consisting of LDN193189, BMP7, A 83-01, Activin A, Takinib, PD0325901, MK2206, FGF8b, AZD3147, MHY1485, GSI-XX and Yhhu 3792. Similar to the previous experiment, hiPSCs were treated with stage 1 media for 3 days and then treated with 96 conditions of combinations of the factors for an additional 3 days. When this model was optimized for maximum expression of FOXA2, BMP7 with factor contribution of 13.7 and MK2206 with 14.2 had the most impact on its expression followed by AZD 3147 with factor contribution of 10.9.
as §1, §2

[4] = test system: stage 2 neural progenitors; assay: HD-DoE 12-factor model for stage 3 recipe (FIG. 19-23, 29); assay type: cell-based, human; conditions: for expression level of KCNJ6 in absence of the factor / expression level of SOX6 in absence of the factor / expression level of MSX1 in absence of the factor / expression level of CORIN in absence of the factor: stage 3 recipe, other factors present; for expression level of KCNJ6 in absence of the factor: 50 with all factors; for expression level of SOX6 in absence of the factor: 105 with all factors; for expression level of MSX1 in absence of the factor: 140 with all factors; for expression level of CORIN in absence of the factor: 900 with all factors
Text: To develop the neuronal differentiation recipes, the impact of various agonist and antagonists (effectors) on maturation of MB neural progenitors was investigated using the HD-DoE method described in Example 1. These effectors were chosen based on available literature on developmental biology, differentiation of stem cells as well as mouse and human single cell RNA-seq data from midbrain neurons at the time.
To engineer the recipe of stage 3 of differentiation, cells were first cultured in the stage 1 and stage 2 media as described herein, then they were treated with combinations of 8 or 12 factors for 3 days and the gene expression of cells in each condition was modeled. To guide the cells towards a subtype of midbrain dopaminergic neurons that reside in Substantia Nigra pars compacta (SNc) region of the brain, neural progenitors need to be SOX6^+ (Pereira et al. (2021) Cell Rep. 37:109975 Oosterveen et al. (2021) Stem Cell Reports 16:2718-2735 Poulin et al. (2020) Trends Neurosci. 43:155-169). CORIN, NGN2 and MSX1 are other markers involved in neurogenesis of dopaminergic neurons originating from floorplate region of developing midbrain (Wang et al. (2020) Cells 9:1489; Samata et al. (2016) Nat Commun. 7:13097; Ono et al. (2007) Development 134:3213-3225; Prakash et al. (2006) J. Physiol. 575:403410).
Therefore, we focused on maximizing expression of SOX6, CORIN, NGN2 and MSX1 in modeling experiments. One of the 12-factor models, the results of which are shown in FIG. 19, including LDN193189, AGN193109, BMP7, TTNPB, PD0325901, A8301, MHY1485, CHIR99021, XAV939, SANT-1, Purmorphamine and MK2206, provided a combination set that could maximize expression level of CORIN to more than 2000.
To assess the impact of elimination of each validated factor identified in Example 5 for the stage 3 and stage 4 recipes, we used dynamic profile analysis and compared the expression level of genes of interest in absence of each finalized factor while others are present.
In the stage 3 recipe, each of the finalized factors were removed in their respective models while other factors were present and the expression level of genes of interest was assessed compared to presence of all factors. When AGN193109 was excluded, level of all CORIN, KCNJ6, MSX1 and SOX6 decreased from 900 to 450, 50 to 35, 140 to 110 and 105 to 60, respectively. […] When PD0325901 was removed, expression levels of CORIN and KCNJ6 increased to 1200 and 70 while levels of MSX1 and SOX6 decreased to 105 and 20. In the absence of CHIR99021, the expression level of CORIN was again increased to 1200 while the level of KCNJ6 and MSX1 dropped to 50 and 115. […] Therefore, it was decided to include this compound in the final recipe. […] Therefore, CHIR99021 was also included in the final recipe.

[5] = model optimized for maximum expression of FOXA2, positive impact
[6] = model maximizing expression of CORIN, positive regulatory impact
[7] = model optimized for maximum expression of KCNJ6, positive regulators

Molecule | impact on GBX2 [3] | impact on expression of FOXA2 [3] | impact on expression of LMX1A [3] | factor contribution [3, 5] | level of FOXA2 in absence of the factor [3] | level of LMX1A in absence of the factor [3] | factor contribution [4, 6] | factor contribution [4, 7] | expression level of KCNJ6 in absence of the factor [4] | expression level of SOX6 in absence of the factor [4] | expression level of MSX1 in absence of the factor [4] | expression level of CORIN in absence of the factor [4] | further results
NC1(c2ccc(-c3nc4ccn5c(=O)[nH]nc5c4cc3-c3ccccc3)cc2)CCC1 [MK2206] | desirable impact | desirable impact; also recorded: positive impact | decreases | 14.2 | reduced | increasing | – | – | – | – | – | – | impact on expression of OTX2 ([1]; dynamic profile, 13 effectors): positive impact; factor contribution ([1]; model optimized for maximum expression of OTX2, positive impact, 3-day treatment): 22.3; expression level of LMX1A in absence of the factor ([1]; stage 1 recipe, other four factors present, 300 with all five factors): stayed the same; expression level of FOXA2 in absence of the factor ([1]; stage 1 recipe, other four factors present, 600 with all five factors): stayed the same; expression level of DMBX1 in absence of the factor ([1]; stage 1 recipe, other four factors present, 3000 with all five factors): 1500; expression level of OTX2 in absence of the factor ([1]; stage 1 recipe, other four factors present, 12000 with all five factors): 9500; impact on expression of FOXA2 ([2]; dynamic profile / model, 12 effectors): positive impact; factor contribution ([3]; model optimized for maximum expression of LMX1A, positive impact): 12
COc1cccc(Oc2cccc3nc(Nc4ccc(C(C)C)cc4)nc(N)c23)c1 [Yhhu 3792] | positive effect | – | considerable negative effect | – | – | – | – | – | – | – | – | – | factor contribution ([3]; model optimized for LMX1A, negative impact): 11.7
Cc1ccc(C2=CCC(C)(C)c3ccc(C#Cc4ccc(C(=O)O)cc4)cc32)cc1 [AGN193109] | – | – | – | – | – | – | 20.3 | 17 | 35 | 60 | 110 | 450 | factor contribution ([2]; model optimized for LMX1A, positive impact): < 1; impact on expression of KCNJ6 ([4]; dynamic profile, 12 effectors): positive impact; factor contribution ([4]; model optimized for maximum expression of SOX6, positive impact): 26.1
C[C@H](NC(=O)Cc1cc(F)cc(F)c1)C(=O)N[C@@H]1C(=O)N(C)c2ccccc2-c2ccccc21 [GSI-XX] | – | did not make a meaningful positive change | did not make a meaningful positive change | – | – | – | – | – | – | – | – | – | –
BMP7: BMP agonist (protein, UniProt P18075 293-431, looked up) Bone morphogenetic protein 7: STGSKQRSQNRSKTPKNQEALRMANVAENSSSDQRQACKKHELYVSFRDLGWQDWIIAPEGYAAYYCEGECAFPLNSYMNATNHAIVQTLVHFINPETVPKPCCAPTQLNAISVLYFDDSSNVILKKYRNMVVRACGCH | – | significant positive impact | did not reduce | 13.7 | 0 | increasing | high positive factor contributions | low factor contributions | did not have a significant change | did not have a significant change | 100 | 500 | factor contribution ([4]; model optimized for maximum expression of MSX1, positive impact): 11.1 and 11.06
